Assay results published in US8084625B2, “Crosslinking agent, crosslinking method, method of controlling gene expression, and method of examining gene function” (Wako Pure Chemical Industries, Ltd., priority 2005, dated 2011).
Entries after “also recorded” stand apart in the source; their conditions may differ.

Key:
EGFP [1] = experiment: Effectiveness versus bis-Bhc-CH3 and Bhc-diazo, EGFP/DsRed cotransfection in Hela cells (Example 7); format: cell-based
Protocol: (§1) As shown in the following Table 5, 0.2 μl of the crosslinking agent solution and 0.20 μl of the siRNA solution were mixed together, and the mixture thus obtained was still held for 8 hours under light shielding conditions. Subsequently, Nos. 2, 4, and 6 were irradiated with UV (350 nm) for 3 minutes using Rayonet Photochemical Reactor manufactured by Southern N. E. Ultraviolet Co.

EGFP [2] = experiment: RNAi-effect inhibitory ability, EGFP/DsRed cotransfection in Hela cells (Example 5); format: cell-based; conditions: crosslinking agent solution 4 μM reacted with siRNA 8 hours, no UV irradiation, 48 hours culture
Protocol: (§2) (1) Reagents • Hela cells (American Type Culture Collection (ATCC, Rockville, Md.)) • DMEM culture medium (Dullbecco's modified Eagle culture medium, Nissui 2, manufactured by Nissui Pharmaceutical Co., Ltd.) • Opti-MEM culture medium (manufactured by GIBCO) • Trypsin solution (0.38 mg/ml EDTA aqueous solution containing 2.5 mg of trypsin, manufactured by GIBCO) • LipofectAMINE 2000 (manufactured by Invitrogen) • pEGFP-N1 vector solution
(§3) Hela cells (500 μl of the DMEM culture medium containing Hela cells and 10% of FBS) were spread on a 24-hole plate so as to obtain 3×10^4 cells/well. After 24 hours passed, the old culture medium was removed, and Hela cells were then washed with a PBS(−) solution. Subsequently, the PBS(−) solution was removed, and 500 μl of the DMEM culture medium containing 10% of FBS was added per one well. This was used as a transfection Hela cell plate.
as §1, with “2,” for “5,”, “Co. […]” for “Co.”

EGFP [3] = experiment: Study in cell: local UV irradiation of transfected Hela cells, EGFP/DsRed (Example 8); format: cell-based
Protocol: as §3, with “of” for “of the”, “DMEM” for “DMEM culture medium”, “5×10^3” for “3×10^4”, “were” for “were then”
(§4) To 9.2 μl of the Opti-MEM culture medium, 0.8 μl of LipofectAMINE 2000 was added, and the culture medium thus processed was still held for 10 minutes.
Next, the above culture medium and the transfecting sample obtained by the above ii) were mixed together, and this mixture was still held for 20 minutes.
(§5) The mixture thus obtained was added to the transfection Hela cell plate prepared by the above (2) and was then cultured at 37° C. for 6 hours using a CO2 incubator (Automatic CO2 Incubators 5400, manufactured by NAPCO).
(§6) After the culture was performed, the culture medium was removed, and Hela cells were washed with a PBS(−) solution. Subsequently, the PBS(−) solution was removed, and 500 μl of the Opti-MEM culture medium was added per one well. […]
In addition, the observation results of the fluorescence images of EGFP and DsRed obtained by using the compound 3 of the present invention are shown in FIG. 6.

EGFP [4] = conditions: compound 3 4 μM
Protocol: The crosslinking agent solution in an amount of 0.2 μl and the siRNA solution in an amount of 0.20 μl were mixed together, and the mixture thus formed was still held for 0, 1, 2, 4, 8, or 24 hours under light shielding conditions.
After the culture was performed, transmission images of cells, and fluorescent images of EGFP and DsRed were observed.
By using a Meta Morph Analysis software (manufactured by Meta Imaging Software), the total fluorescent areas of the respective EGFP and DsRed were measured, and the ratio of EGFP/DsRed was obtained.

EGFP [5] = experiment: Influence of light irradiation and compound on RNAi, control siRNA (targeting luciferase), EGFP/DsRed in Hela cells (Example 9); format: cell-based
Protocol: The expression level obtained by transfection of siRNA which reacted with the compound of the present invention was low as that obtained by transfection of only EGFP. In order to investigate this reason, it was confirmed whether the transfection efficiency was degraded by the compound of the present invention or by the transfection itself of siRNA.
As shown in the following Table 8, 0.2 μl of the crosslinking agent solution and 0.20 μl of the siRNA solution or 0.20 μl of the control siRNA solution were mixed together, and the mixture thus obtained was still held for 8 hours under light shielding conditions.
as §4
Next, the above culture medium and the transfecting sample obtained by the above ii) or the control sample were mixed together, and this mixture was still held for 20 minutes.
as §5, §6

Lamin B1 = experiment: Light irradiation control of endogenous gene, Western blotting of Lamin B1 protein in Hela cells (Example 10); format: cell-based
Protocol: as §2, with “Md.)” for “Md.))”, “siRNA” for “pEGFP-N1 vector”
as §3, with “of” for “of the”, “DMEM” for “DMEM culture medium”, “1×10^3” for “3×10^4”
Mixing between 4.6 μl of the crosslinking agent solution and 0.46 μl of the siRNA solution was performed, and the mixture thus obtained was still held for 8 hours under light shielding conditions.
After the culture was performed, by a Western blotting method, the amounts of a Lamin B1 protein of the individual samples were quantitatively measured. […]
In addition, from the results of the Western blotting, the amounts of the Lamin B1 protein of the samples were quantitatively measured. […]

[6] = Hela cells, regardless before and after UV irradiation, bis-Bhc-CH3 4 μM, Bhc-diazo 8 μM

In the case of [N-]=[N+]=Cc1cc(=O)oc2cc(O)c(Br)cc12 [Bhc-diazo, 6-bromo-7-hydroxy-4-methyldiazocumarine], the “binding to / crosslinking of siRNA” value (EGFP [1]) is reported as “could not crosslink two chains of siRNA” and the “inhibition of the siRNA effect (relative EGFP expression level)” value (EGFP [1]; [6]) is reported as “the siRNA effect could be hardlyinhibited”.

In the case of Cc1cc(=O)oc2cc(OC(=O)CC(C)(C)CC(=O)OCCOC(=O)CC(C)(C)CC(=O)Oc3cc4oc(=O)cc(C)c4cc3Br)c(Br)cc12 [bis-Bhc-CH3, 3,3-dimethylglutaric acid (6-bromo-4-methyl-2-oxo-2H-chromen)-7-yl 2-[4-(6-bromo-4-methyl-2-oxo-2H-chromen-7-yloxycarbonyl)-3,3-dimethylbutyryloxy]ethyl ester], the “binding to / crosslinking of siRNA” value (EGFP [1]) is reported as “could not be bound to siRNA” and the “inhibition of the siRNA effect (relative EGFP expression level)” value (EGFP [1]; [6]) is reported as “the siRNA effect could be hardlyinhibited”.

For [N-]=[N+]=Cc1cc(=O)oc2cc(OC(=O)CCCC(=O)OCCOC(=O)CCCC(=O)Oc3cc4oc(=O)cc(C=[N+]=[N-])c4cc3Br)c(Br)cc12 [compound 2 of the present invention, Glutaric acid (6-bromo-4-diazomethyl-2-oxo-2H-chromen)-7-yl 2-[4-(6-bromo-4-diazomethyl-2-oxo-2H-chromen-7-yloxycarbonyl)butyryloxy]ethyl ester], the “inhibition of the RNAi effect of siRNA (relative EGFP expression level)” value (EGFP [2]) was “superior effect of inhibiting the RNAi effect”.

For CC(C)(CC(=O)OCCOC(=O)CC(C)(C)CC(=O)Oc1cc2oc(=O)cc(C=[N+]=[N-])c2cc1Br)CC(=O)Oc1cc2oc(=O)cc(C=[N+]=[N-])c2cc1Br [compound 3 of the present invention, 3,3-dimethylglutaric acid (6-bromo-4-diazomethyl-2-oxo-2H-chromen)-7-yl 2-[4-(6-bromo-4-diazomethyl-2-oxo-2H-chromen-7-yloxycarbonyl)-3,3-dimethylbutyryloxy]ethyl ester], the “RNAi effect of siRNA at a portion not irradiated with UV” value (EGFP [3]; Hela cells transfected with siRNA crosslinked by compound 3) was “the RNAi effect of siRNA was inhibited”, the “RNAi effect of siRNA at a portion irradiated with UV” value (EGFP [3]; Hela cells, UV (335 to 385 nm) for 1 second at the center of the well, 42 hours culture) was “the RNAi effect of siRNA was restored” and the “crosslinking of siRNA when the reaction time is short” value (EGFP [4]; reaction time short (0, 1, 2, 4 hours tested)) was “could not be sufficiently crosslinked”. For the same compound, the “reaction time at which the reaction between crosslinking agent and siRNA reached a plateau” value (EGFP [4]; reaction times 0-24 hours, no significant difference between 8 and 24 hours) was “approximately 8 hours”, the “EGFP expression rate with control siRNA crosslinked by the compound versus control siRNA only” value (EGFP [5]) was “approximately equivalent to each other” and the “restoration of the inhibited RNAi effect on Lamin B1 expression by UV irradiation” value (Lamin B1; UV irradiation as in Example 8) was “could be restored”. For the same compound, the “inhibition of the RNAi effect of siRNA on Lamin B1 expression” value (Lamin B1; compound 3 bound to siRNA, no UV) was “the RNAi effect of siRNA could be inhibited”, the “inhibition of the RNAi effect of siRNA (relative EGFP expression level)” value (EGFP [2]) was “superior effect of inhibiting the RNAi effect; also recorded: most superior effect” and the “inhibition of the siRNA effect (relative EGFP expression level)” value (EGFP [1]; Hela cells, 4 μM, UV irradiation not performed) was “could inhibit the siRNA effect”. The “effect of UV irradiation on the inhibition of the siRNA effect” value (EGFP [1]; Hela cells, UV (350 nm) for 3 minutes) was “the inhibition was broken down by UV irradiation”.
